Reference: article PMC3665348 (Biochemical pharmacology, 2012)

Target: T1, CYP1A1 (Homo sapiens, UniProt P04798)
T1 sequence (P04798 1-512): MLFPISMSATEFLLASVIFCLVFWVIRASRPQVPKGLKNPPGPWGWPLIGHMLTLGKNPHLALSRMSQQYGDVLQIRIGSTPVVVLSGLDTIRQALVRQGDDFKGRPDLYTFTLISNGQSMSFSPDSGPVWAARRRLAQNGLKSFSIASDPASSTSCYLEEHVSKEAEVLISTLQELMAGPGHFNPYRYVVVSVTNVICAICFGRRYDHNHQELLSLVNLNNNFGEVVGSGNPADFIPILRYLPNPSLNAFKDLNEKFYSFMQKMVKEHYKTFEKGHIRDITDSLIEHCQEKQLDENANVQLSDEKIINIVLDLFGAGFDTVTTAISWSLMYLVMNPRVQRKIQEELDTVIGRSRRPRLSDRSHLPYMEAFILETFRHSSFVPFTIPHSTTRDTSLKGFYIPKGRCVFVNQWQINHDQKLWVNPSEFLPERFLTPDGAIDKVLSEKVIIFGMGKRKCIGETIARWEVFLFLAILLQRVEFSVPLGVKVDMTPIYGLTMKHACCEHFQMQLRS
Assay: procainamide hydroxylamine
Type: biochemical
Details: 20 μM procainamide, NADPH 2 mM, MgCl2 2 mM, 20 mM PBS pH 7.4, 37°C, 30 min

CCN(CC)CCNC(=O)c1ccc(N)cc1 [I, Procainamide]
procainamide hydroxylamine (VI) formation, UPLC-ESI-QTOFMS: CYP1A1 also had some activity.
